Results: patent US20060046972A1, “Cytotoxic nucleoside analog compound 003 for treating cancer” (Parker Hughes Institute, priority 2004, published 2006)

Key:
[1] = system: MDA-MB breast cancer cells; experiment: Confocal laser scanning microscopy of mitotic spindle, MDA-MB; format: cell-based, human
Experimental: Immunofluorenscence was used to examine the spindle features of human cancer cell lines treated with Compound 003 or 0.5% DMSO. Initially, cells at log phase were seeded onto sterile 22 mm coverslips in six -well culture plates. 24 hours later, the cells were treated with compound 003 for 2 hours at 37° C., 5% C02, fixed in methanol (−20° C. 15 min) followed by a 15 minute incubation with PBS +0.1.% Tx-100. The coverslips were incubated with antibodies raised against α-tubulin, γ-tubulin (Sigma Chemical Co., St Louis, Mo.) (40 min 37° C.), washed in PBS-Tx-100, and incubated with an appropriate secondary antibody conjugated to FITC (Jackson ImmunoResearch, Westgrove, Pa.). Cellular DNA was labeled with 5 μM TOTO3 (Molecular Probes, Eugene, Oreg.) for 20 minutes. Coverslips were immediately inverted onto slides in Vectashield (Vector Labs, Burlingame, Calif.) to prevent photobleaching, sealed with nail varnish and stored at −20° C. The slides were examined using a Bio-Rad MRC-1024 Laser Scanning Confocal Microscope equipped with a Kr/Ar laser (BioRad, Hercules, Calif.) mounted on a Nikon Eclipse E800 upright microscope with high numerical aperture objectives (Nikon, Melville, N.Y.). Digital data were processed using Lasersharp (BioRad) and Adobe Photoshop software (Adobe Systems, Mountain View, Calif.). […]

MOLT-3, human T lymphoma = experiment: DNA flow cytometry of cell cycle arrest, MOLT-3; format: cell-based; conditions: 100 μM, 48 hour
Experimental: Exponentially growing tumor cells were cultured at 1×10^6 cells/ml in clonogenic medium (RPMI 1640 medium +1% penicillin/streptomycin +10% heat-inactivated fetal bovine serum, 2 mML-glutamine, and 10 mM Hepes buffer) in the presence or absence of 100 μM compound 003 for 48 hour at 37° C., 5% CO2. At 48 h, cells were washed two times in fresh clonogenic medium, trypsinized, fixed in ice cold ethanol and labeled with propidium iodide to quantify their DNA content, as described previously (See, for example, Navara, et al., 2001, Anticancer Drugs. 12:369). Quantitative DNA analysis was performed on a Becton Dickenson Calibur flow cytometer equipped with a Consort 40 computer using the COTFIT program, which includes CELLCY, a cell cycle distribution function that fits DNA content histograms and calculates-the percentages of cells in G, S, and GM phases of the cell cycle, as described, for example, in Uckun et al., 1996, J Biol Chem. 271, 6389.

[2] = Pharmacokinetics in CD-1 mice after intravenous or oral Compound 003; format: in vivo
Experimental: Each plasma sample (200 μL) was mixed 1:4 with acetone (800 μL) and vortexed for at least 30 seconds. Following centrifugation, the supernatant was transferred into a clean tube and dried under nitrogen. A 50 μL solution of 50% methanol in 200 mM HCl was used to reconstitute the extraction residue, and 35 μL was subjected to analytical HPLC. The analytical column used was a 250×4 mm Lichrospher 100, RP-18 (5 μm) and the guard column was a 4×4 mm Lichrospher 100, RP-18 (5 μm). The mobile phase was degassed automatically by the electronic degasser system. The column was equilibrated and eluted under gradient conditions utilizing a flow rate of 1.0 ml/min at ambient temperature. The linear gradient mobile phase was: 0 minute, 100% 10 mM ammonium phosphate buffer (pH 3.7); 20 minutes, 20% acetonitrile, 80% ammonium phosphate buffer (pH 3.7); 20.1-50 minutes, 28% acetonitrile, 72% water (0.1% HAC). The wavelength of detection was set at 270 nm. Peak width, response time and slit werep, set at >0.03 minutes, 0.5 s and 8 nm, respectively.
Female CD-1 mice (6-8 weeks old) (Charles River, Wilmington, Mass.) were housed in a USDA-accredited animal care facility under standard environmental conditions (12-h light/12-h dark photoperiod, 22±1° C., 60±10% relative humidity). All rodents were housed in microisolator cages (Lab Products, Inc., N.J.) containing autoclaved bedding. Mice were allowed free access to autoclaved pellet food and tap water throughout the study. All animal studies are approved by the Parker Hughes Institute Animal Care and Use Committee, and all animal care procedures conformed to the principles outlined in the Guide for the Care and Use of Laboratory Animals (National Research Council;. National Academy Press, Washington D.C. 1996).
Compound 003 (200 mg/kg) dissolved in DMSO was administered intravenously via tail vein to non-fasted mice or orally via gavage to 12-h fasted mice. Four to six mice per time-point were used for pharmacokinetic studies. Blood samples (˜500 μL) were obtained from the ocular venous plexus by retro-orbital venipuncture at 0, 5, 10, 15, 30, 45 minutes, and 1 h, 1.5 h, 2 h, 4 h, 6 h and 8 h after oral administration. All collected blood-samples were heparinized and centrifuged at 7000×g for 5 minutes to separate the plasma fraction from the whole blood. The plasma samples were then processed immediately using the extraction procedure described above.
Pharmacokinetic modeling and parameter calculations were carried out using the WinNonlin Professional Version 3.0 (Pharsight, Inc., Mountain, Calif.) pharmacokinetics software (Chen, C. L., et al., (1999) Pharm Res. 16:117; Chen, C. L., et al., (1999) Pharm Res. 16:1003; Uckun, F. M., et al., (1999) Clin Cancer Res. 5:2954). An appropriate model was chosen on the basis of the lowest sum of weighted squared residuals, the lowest Schwartz Criterion (SC), the lowest Akaike's Information Criterion (AIC) value, the lowest standard errors of the fitted parameters, and the dispersion of the residuals. The elimination half-life was estimated by linear regression analysis of the terminal phase of the plasma concentration-time profile. The systemic clearance (CL) was determined by dividing the dose by the AUC.

In the case of `COC(=O)C(C)NP(=O)(OCC1OC(n2cc(C)c(=O)[nH]c2=O)CC1N=[N+]=[N-])Oc1ccc(OC)cc1` (stereo not shown) [Compound 003, 3′-azidothymidine 5′-[p-methoxyphenylmethoxyalaninyl phosphate]], the mitotic spindle formation [1] is reported as “induced aberrant multipolar (instead of normal bipolar) spindle formation”, the cell cycle arrest (MOLT-3, human T lymphoma) is reported as “caused G2 arrest” and the “in vivo transformation of parent compound” value ([2]; i.v. injection of 200 mg/kg) is reported as “immediately transformed to Ala-AZT-MP and AZT”. The “plasma concentration of parent compound” value ([2]; oral 200 mg/kg, below the detection limit) was < 500 nM.
